Publication PMC2650251 (Organic letters, 2008)

Target: T1, PTP1B (Homo sapiens, UniProt P18031)
T1 sequence (P18031 1-435): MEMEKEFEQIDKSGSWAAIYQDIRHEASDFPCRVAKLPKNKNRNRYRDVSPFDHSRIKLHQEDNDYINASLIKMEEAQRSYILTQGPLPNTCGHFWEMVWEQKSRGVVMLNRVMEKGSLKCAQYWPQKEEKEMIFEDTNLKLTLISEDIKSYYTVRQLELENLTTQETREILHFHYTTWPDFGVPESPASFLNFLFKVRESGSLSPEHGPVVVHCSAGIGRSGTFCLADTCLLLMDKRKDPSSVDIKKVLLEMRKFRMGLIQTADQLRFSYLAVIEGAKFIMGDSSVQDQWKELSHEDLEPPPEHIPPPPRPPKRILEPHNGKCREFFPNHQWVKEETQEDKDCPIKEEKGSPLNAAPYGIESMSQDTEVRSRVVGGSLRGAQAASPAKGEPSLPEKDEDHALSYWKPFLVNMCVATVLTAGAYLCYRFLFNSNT
Assay: Kinetic constants of pY peptides against PTP1B
Type: biochemical
Conditions: pH 7.4, peptide as substrate
DDTYDpYAA-NH2 [Peptide 7] showed a Km of 14 ± 2 µM, a kcat of 33 ± 1 s⁻¹ and a kcat/KM of 2.3e+06 M⁻¹ s⁻¹. For REYEFpYAA-NH2 [Peptide 9], the Km was 6 ± 0.7 µM, the kcat was 33 ± 1 s⁻¹ and the kcat/KM was 5.4e+06 M⁻¹ s⁻¹. DDTF2YDpYAA-NH2 [Peptide 6] gave a Km of 13 ± 3 µM, a kcat of 36 ± 2 s⁻¹ and a kcat/KM of 2.7e+06 M⁻¹ s⁻¹. Molecule DNLF2YpYWD-NH2 [Peptide 4] has a Km of 3.6 ± 0.4 µM, a kcat of 36 ± 1 s⁻¹ and a kcat/KM of 1e+07 M⁻¹ s⁻¹.

System: not given
Assay: not given
Conditions: cited from earlier work
For `N[C@@H](Cc1cc(F)c(O)c(F)c1)C(=O)O` [Compound 1, 3,5-difluorotyrosine], the “side chain pKa” value is given as 7.2.
